In ChEMBL document CHEMBL1201862, “PubChem BioAssay data set” (2004):
Values belong to the compound of their own block, whether it stands above or below them. Calls of active or inactive are those of the source.

Assays:
[1] = target: Voltage-dependent T-type calcium channel subunit alpha-1H (Homo sapiens, UniProt O95180); assay: inhibition of CACNA1H calcium flux – cell-based, SynthLib3 library, HEK293 Cav3.2, fluorescence (AID 493041); type: functional
[2] = target: Sphingosine 1-phosphate receptor 3 (Homo sapiens, UniProt Q99500); assay: Late stage counterscreen assay for S1P4 antagonists: Fluorescence dose response cell-based screening assay for antagonists of the Sphingosine 1-Phosphate Receptor 3 (S1P3). [Related pubchem assays (depositor defined):AID1510, AID1524, AID1692, AID1853, AID2332, AID489009, AID489017]; type: functional
[3] = target: Sphingosine 1-phosphate receptor 1 (Homo sapiens, UniProt P21453); assay: Late stage counterscreen assay for S1P4 antagonists: Fluorescence dose response cell-based screening assay for antagonists of the Sphingosine 1-Phosphate Receptor 1 (S1P1). [Related pubchem assays (depositor defined):AID1510, AID1524, AID1692, AID1853, AID2332, AID489009, AID489017]; type: functional
[4] = target: Sphingosine 1-phosphate receptor 2 (Homo sapiens, UniProt O95136); assay: Late stage counterscreen assay for S1P4 antagonists: Fluorescence dose response cell-based screening assay for antagonists of the Sphingosine 1-Phosphate Receptor 2 (S1P2). [Related pubchem assays (depositor defined):AID1510, AID1524, AID1692, AID1853, AID2332, AID489009, AID489017]; type: functional
[5] = target: Sphingosine 1-phosphate receptor 5 (Homo sapiens, UniProt Q9H228); assay: Late stage counterscreen assay for S1P4 antagonists: Fluorescence dose response cell-based screening assay for antagonists of the Sphingosine 1-Phosphate Receptor 5 (S1P5). [Related pubchem assays (depositor defined):AID1510, AID1524, AID1692, AID1853, AID2332, AID489009, AID489017]; type: functional
HEK293 [6] = assay: SAR Analysis of small molecule inhibitors of B-cell specific antigen receptor-induced NF-kB activation in a HEK-293T cell line using a luminescence assay - Set 2. [Related pubchem assays (depositor defined):AID435022, AID435025, AID489021]; type: functional, cell-based; conditions: Homo sapiens
Jurkat = assay: SAR Analysis of small molecule inhibitors of […] specific antigen receptor-induced NF-kB activation in a Jurkat cell line using a luminescence assay - Set 3. [Related pubchem assays (depositor defined):AID435022, AID435025, AID465]; type: functional, cell-based; conditions: Homo sapiens
HEK293 [7] = assay: HEK293T cell viability loss, resazurin readout – resazurin fluorescence, cytotoxicity control for NF-kB activator project, SAR follow-up (AID 493251); type: functional, cell-based; conditions: Homo sapiens
[8] = target: Potassium voltage-gated channel subfamily KQT member 2 (Rattus norvegicus, UniProt O88943); assay: rat KCNQ2 current potentiators – automated patch clamp, KCNQ2-CHO cells, SAR follow-up (AID 493113); type: functional
[9] = target: T1, Intestinal-type alkaline phosphatase (Homo sapiens, UniProt P09923); assay: Dose Response confirmation of uHTS hits from a small molecule inhibitors of human intestinal alkaline phosphatase via a luminescent assay. [Related pubchem assays (depositor defined):AID2544, AID2574]; type: functional
[10] = target: T1, Intestinal-type alkaline phosphatase; assay: human intestinal alkaline phosphatase activators, dose response, biochemical, luminescence, uHTS hits (AID 463120); type: functional
[11] = target: T2, Tyrosine-protein phosphatase non-receptor type 22 (Homo sapiens, UniProt Q9Y2R2); type: functional
T2 sequence (Q9Y2R2 whole entry): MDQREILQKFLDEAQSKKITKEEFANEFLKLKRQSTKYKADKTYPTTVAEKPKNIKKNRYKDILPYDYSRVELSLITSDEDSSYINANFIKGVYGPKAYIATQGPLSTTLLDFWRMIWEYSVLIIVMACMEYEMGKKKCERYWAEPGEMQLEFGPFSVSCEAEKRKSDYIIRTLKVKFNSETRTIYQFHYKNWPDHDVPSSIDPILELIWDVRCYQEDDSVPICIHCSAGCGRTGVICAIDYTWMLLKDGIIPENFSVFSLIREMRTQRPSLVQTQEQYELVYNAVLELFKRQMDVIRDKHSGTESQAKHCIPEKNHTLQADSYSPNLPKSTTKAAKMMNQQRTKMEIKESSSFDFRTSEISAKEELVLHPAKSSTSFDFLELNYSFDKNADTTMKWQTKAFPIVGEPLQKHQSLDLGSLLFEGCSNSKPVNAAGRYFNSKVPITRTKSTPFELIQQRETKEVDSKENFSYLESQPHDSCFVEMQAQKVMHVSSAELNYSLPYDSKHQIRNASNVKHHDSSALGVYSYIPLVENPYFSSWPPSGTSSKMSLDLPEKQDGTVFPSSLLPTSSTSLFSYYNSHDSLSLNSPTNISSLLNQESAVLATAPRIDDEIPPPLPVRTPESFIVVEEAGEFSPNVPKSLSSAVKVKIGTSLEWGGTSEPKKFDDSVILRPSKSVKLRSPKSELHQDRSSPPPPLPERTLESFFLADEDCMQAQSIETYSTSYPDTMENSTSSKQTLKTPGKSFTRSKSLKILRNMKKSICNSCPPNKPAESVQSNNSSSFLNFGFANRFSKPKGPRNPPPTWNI

[12] = target: T2, Tyrosine-protein phosphatase non-receptor type 22; type: functional; remark: listed apart in the source
[13] = target: T3, Tyrosine-protein phosphatase non-receptor type 7 (Homo sapiens, UniProt P35236); type: functional
T3 sequence (P35236 whole entry): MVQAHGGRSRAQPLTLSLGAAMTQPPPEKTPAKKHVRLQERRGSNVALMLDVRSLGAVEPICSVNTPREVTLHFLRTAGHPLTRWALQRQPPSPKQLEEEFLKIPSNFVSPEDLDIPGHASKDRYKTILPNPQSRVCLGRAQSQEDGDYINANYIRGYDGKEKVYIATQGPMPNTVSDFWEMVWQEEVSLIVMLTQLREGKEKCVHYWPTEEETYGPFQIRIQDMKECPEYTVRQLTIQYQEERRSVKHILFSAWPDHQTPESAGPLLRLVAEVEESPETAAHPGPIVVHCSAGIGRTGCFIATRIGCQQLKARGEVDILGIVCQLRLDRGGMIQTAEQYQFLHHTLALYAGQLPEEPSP

T1 sequence (P09923 whole entry): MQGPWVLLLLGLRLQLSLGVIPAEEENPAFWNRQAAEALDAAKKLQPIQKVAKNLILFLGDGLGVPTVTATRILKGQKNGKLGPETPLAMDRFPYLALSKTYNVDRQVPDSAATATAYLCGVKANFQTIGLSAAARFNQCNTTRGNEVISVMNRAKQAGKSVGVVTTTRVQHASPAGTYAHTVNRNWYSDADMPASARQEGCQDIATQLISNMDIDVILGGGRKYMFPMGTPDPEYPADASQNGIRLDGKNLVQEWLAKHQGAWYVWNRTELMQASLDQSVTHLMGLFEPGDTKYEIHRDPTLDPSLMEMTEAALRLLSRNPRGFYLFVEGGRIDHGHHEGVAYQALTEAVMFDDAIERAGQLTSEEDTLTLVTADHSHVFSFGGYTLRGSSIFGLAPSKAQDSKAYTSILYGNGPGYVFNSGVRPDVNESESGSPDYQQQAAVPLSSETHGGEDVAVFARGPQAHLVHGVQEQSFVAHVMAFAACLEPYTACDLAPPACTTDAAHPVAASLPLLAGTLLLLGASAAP
Chain of Voltage-dependent T-type calcium channel subunit alpha-1H (O95180 whole entry): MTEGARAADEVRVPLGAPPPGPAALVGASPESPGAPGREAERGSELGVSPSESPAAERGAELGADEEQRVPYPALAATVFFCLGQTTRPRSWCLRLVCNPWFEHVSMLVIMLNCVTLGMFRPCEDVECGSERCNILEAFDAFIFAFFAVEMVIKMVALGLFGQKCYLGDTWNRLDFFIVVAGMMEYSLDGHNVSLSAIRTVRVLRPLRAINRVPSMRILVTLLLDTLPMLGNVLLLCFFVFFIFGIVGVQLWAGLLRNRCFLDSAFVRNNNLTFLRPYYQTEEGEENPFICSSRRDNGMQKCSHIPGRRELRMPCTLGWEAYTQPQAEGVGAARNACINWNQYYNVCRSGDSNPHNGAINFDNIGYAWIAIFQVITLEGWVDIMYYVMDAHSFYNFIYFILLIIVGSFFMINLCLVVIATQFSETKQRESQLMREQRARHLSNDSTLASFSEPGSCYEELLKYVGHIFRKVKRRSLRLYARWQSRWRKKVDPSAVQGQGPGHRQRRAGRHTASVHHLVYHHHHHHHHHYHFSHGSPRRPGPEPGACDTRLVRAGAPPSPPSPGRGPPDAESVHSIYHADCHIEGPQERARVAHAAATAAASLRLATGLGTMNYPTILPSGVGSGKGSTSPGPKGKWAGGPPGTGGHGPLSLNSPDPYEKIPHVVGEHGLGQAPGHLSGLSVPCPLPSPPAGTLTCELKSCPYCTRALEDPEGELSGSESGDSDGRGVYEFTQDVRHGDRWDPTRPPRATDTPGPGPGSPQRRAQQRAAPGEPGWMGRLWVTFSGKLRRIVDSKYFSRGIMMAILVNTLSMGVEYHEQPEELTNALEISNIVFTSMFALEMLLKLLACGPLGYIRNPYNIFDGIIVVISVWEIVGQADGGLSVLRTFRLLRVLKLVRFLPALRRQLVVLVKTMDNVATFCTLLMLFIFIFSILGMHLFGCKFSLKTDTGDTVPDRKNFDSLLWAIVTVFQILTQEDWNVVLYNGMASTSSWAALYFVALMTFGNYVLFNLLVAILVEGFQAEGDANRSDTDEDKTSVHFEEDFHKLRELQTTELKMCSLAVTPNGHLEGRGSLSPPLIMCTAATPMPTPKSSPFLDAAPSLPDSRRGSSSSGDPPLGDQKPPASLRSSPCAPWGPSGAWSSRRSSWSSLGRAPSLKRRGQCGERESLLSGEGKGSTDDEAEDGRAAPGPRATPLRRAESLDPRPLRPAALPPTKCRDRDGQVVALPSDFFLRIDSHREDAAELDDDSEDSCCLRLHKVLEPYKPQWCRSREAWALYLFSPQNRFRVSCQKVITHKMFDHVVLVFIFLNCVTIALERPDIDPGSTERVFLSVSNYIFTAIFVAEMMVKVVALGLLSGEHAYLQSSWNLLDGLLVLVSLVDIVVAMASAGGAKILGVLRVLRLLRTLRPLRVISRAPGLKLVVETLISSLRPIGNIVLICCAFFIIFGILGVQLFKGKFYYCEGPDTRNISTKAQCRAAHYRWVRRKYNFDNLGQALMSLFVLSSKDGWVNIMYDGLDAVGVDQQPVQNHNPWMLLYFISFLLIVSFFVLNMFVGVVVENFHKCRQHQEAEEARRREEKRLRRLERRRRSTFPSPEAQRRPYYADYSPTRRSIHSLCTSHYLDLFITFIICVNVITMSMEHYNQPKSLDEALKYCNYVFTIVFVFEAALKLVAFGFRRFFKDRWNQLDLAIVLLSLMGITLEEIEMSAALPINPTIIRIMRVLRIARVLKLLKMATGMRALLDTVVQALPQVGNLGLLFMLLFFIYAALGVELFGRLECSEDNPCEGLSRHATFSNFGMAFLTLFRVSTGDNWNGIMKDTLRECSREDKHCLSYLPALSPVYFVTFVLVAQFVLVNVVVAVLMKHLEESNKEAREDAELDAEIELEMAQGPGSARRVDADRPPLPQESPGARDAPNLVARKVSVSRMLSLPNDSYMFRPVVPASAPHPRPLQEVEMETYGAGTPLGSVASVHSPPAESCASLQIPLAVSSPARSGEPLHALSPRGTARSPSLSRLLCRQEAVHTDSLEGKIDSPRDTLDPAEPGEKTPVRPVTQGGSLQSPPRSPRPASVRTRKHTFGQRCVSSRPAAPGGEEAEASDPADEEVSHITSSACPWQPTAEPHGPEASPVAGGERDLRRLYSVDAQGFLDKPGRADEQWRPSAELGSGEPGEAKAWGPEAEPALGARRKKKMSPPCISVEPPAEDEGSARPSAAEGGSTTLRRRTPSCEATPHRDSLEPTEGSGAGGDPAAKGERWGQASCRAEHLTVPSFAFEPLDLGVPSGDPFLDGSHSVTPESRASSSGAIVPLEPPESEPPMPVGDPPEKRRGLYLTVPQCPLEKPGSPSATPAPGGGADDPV
Chain of Potassium voltage-gated channel subfamily KQT member 2 (O88943 whole entry): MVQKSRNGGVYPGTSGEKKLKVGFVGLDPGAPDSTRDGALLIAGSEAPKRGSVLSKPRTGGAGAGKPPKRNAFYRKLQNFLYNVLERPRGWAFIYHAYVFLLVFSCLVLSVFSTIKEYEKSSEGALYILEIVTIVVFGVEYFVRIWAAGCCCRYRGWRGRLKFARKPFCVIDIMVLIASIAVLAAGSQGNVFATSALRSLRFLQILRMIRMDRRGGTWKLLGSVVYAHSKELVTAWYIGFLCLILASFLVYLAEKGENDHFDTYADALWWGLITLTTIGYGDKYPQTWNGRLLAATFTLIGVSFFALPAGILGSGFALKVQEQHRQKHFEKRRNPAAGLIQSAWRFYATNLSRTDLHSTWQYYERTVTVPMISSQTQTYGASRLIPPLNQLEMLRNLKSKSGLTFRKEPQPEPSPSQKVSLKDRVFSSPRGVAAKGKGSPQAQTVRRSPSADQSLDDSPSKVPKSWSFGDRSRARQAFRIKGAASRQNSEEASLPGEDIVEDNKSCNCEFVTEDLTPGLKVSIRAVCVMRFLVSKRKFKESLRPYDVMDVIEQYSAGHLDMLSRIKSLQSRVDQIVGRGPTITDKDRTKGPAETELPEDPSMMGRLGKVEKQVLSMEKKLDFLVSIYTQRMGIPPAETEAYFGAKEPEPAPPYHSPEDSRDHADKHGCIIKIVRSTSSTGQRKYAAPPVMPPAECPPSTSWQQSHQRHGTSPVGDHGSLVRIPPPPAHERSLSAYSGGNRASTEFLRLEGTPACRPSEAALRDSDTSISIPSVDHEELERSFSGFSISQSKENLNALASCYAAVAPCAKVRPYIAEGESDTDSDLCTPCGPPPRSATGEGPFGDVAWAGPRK
Chain of Sphingosine 1-phosphate receptor 2 (O95136 whole entry): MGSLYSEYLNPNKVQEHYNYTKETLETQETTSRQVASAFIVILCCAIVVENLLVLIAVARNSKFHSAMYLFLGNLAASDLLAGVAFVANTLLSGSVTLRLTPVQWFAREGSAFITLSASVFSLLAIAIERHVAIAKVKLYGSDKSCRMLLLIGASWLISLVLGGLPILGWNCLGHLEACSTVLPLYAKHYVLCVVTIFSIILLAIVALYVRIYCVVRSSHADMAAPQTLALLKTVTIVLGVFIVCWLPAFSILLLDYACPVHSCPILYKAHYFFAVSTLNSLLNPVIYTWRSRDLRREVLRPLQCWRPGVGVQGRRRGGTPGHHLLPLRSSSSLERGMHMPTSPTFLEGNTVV
Chain of Sphingosine 1-phosphate receptor 3 (Q99500 whole entry): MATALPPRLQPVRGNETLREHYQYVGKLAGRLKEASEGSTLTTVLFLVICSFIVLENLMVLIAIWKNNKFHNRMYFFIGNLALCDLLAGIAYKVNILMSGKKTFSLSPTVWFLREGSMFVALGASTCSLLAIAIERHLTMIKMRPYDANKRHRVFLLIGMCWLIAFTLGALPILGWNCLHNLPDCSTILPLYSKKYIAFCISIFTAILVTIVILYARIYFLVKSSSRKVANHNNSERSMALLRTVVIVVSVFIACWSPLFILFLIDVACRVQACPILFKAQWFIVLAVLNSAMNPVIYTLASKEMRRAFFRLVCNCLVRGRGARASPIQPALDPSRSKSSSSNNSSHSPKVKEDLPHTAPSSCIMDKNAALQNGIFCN
Chain of Sphingosine 1-phosphate receptor 1 (P21453 whole entry): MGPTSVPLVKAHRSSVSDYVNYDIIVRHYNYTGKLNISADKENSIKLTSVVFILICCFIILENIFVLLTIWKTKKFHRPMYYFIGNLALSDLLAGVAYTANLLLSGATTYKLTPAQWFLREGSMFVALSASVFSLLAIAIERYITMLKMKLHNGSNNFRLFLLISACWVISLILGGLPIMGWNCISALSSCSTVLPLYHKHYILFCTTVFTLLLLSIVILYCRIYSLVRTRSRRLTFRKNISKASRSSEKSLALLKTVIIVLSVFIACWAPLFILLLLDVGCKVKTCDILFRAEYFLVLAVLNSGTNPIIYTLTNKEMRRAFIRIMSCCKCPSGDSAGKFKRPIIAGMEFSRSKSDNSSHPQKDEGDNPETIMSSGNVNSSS

Structure (SMILES): Cc1ccc(S(C)(=O)=O)c(C)c1NC(=O)c1ccc(-c2cc(Cl)ccc2Cl)o1
IC50 [2]: 15.8 µM (inactive) | IC50 [3]: > 25 µM (inactive) | IC50 [4]: 13.8 µM (inactive) | IC50 [5]: > 25 µM (inactive)

Structure (SMILES): CCOc1ccc(-c2nc(CSCC(=O)NC3CCCC(C)C3C)c(C)o2)cc1 (centres undefined)
IC50 (HEK293 [6]): 8.81 µM (active) | IC50 (Jurkat): 39.3 µM (inactive) | IC50 (HEK293 [7]): 38.9 µM (inactive)

Structure (SMILES): COc1ccc(S(=O)(=O)N2CCCCCC2)cc1C(=O)OCc1c(C)noc1C
IC50 [11]: > 79.4 µM (inactive) | IC50 [12]: > 79.4 µM (inactive) | IC50 [13]: > 79.4 µM (inactive)

Second part, the compound after the results:

EC50 [1]: 4 µM (active)
Structure (SMILES): CCC(C)CN1C[C@@H]2C(CNC(=O)c3cc(Cl)cc(Cl)c3)[C@@H]2C1 (some centres undefined)

EC50 [8]: 10 µM (active)
Structure (SMILES): O=C(Nc1ccc(F)cc1F)C1CC2CCC1C2 (centres undefined)

IC50 [9]: > 100 µM (inactive) | EC50 [10]: > 100 µM (inactive)
Structure (SMILES): CCC(OC(=O)C1=Cc2ccccc2OC1)C(=O)NC1CCCC1 (centres undefined)
